≈ marks a conversion by molar mass, not a printed value. Calls of active or inactive are those of the source. No cut-off for these calls is given here.
Columns and labels:
Format in all cases: functional
[1] = Antioxidant activity assessed as hydroxyl radical scavenging activity
[2] = Antioxidant activity assessed as reducing power at 0.5 to 2 mg/ml
[3] = tested on: Radical scavenging activity; assay: Antioxidant activity assessed as DPPH radical scavenging activity at 2 mg/ml
[4] = Antioxidant activity assessed as hydroxyl radical scavenging activity at 2 mg/ml
[5] = Antioxidant activity assessed as superoxide anion radical scavenging activity at 2 mg/ml
[6] = tested on: Radical scavenging activity; assay: Antioxidant activity assessed as DPPH radical scavenging activity

Cc1cc(O)cc(O[C@@H]2O[C@H](CO)[C@@H](O)[C@H](O)[C@H]2O)c1
Activity [1]: Dose-dependent effect
Activity [2]: Active
Activity [3]: 69.3%
Activity [4]: 77.5%
Activity [5]: 70.2%
IC50 [6]: 900 µg/mL (≈ 3.14 mM)

Reference: ChEMBL document CHEMBL2424654, “Optimization of enzyme-based ultrasonic/microwave-assisted extraction and evaluation of antioxidant activity of orcinol glucoside from the rhizomes of Curculigo orchioides Gaertn” (Med Chem Res, 2013)
